# From patent US8415293B2, “Peptide mediators of cholesterol efflux” (The Regents of the University of California, priority 2008, dated 2013)
# Square brackets hold non-standard residues; d marks the D form. Ends that are not written are not given here.
# What was measured:
# [1] = Scaled = (Raw + 2.061)/4.484; Black and Mould 1991; cited from earlier work
# ABCA1 [2] = target: T1, ABCA1 (Mus musculus, UniProt P41233); test: Cholesterol efflux from [3H]cholesterol-labeled J774 macrophages ± cAMP (upregulates ABCA1); type: cell-based; settings: for % cholesterol efflux (8 hours): J774 macrophages; for cholesterol efflux from cells induced for the ABCA1 response (in words): lipid-free peptide 30 μg/ml, 8 h, +cAMP compared to no cAMP
# T1 construct: cell lines in which cholesterol efflux can be enhanced using a cAMP analog that up-regulates ABCA1 protein expression (e.g., J774 macrophages); endogenous in cells; host or cells: J774 macrophages
# Text: Suitable cholesterol efflux assays are described in, […] and Oda, M. N., Biochemistry, 41:2089-2096 (2002); Jia et al., Biochem. Biophys. Res. Common., 297:206-213 (2002). In some embodiments, a polypeptide known to mediate cholesterol efflux (e.g., helix 9/10 of Apo A-I) is used to screen for additional mediators of cholesterol efflux in a cell based assay. For example, cell lines in which cholesterol efflux can be enhanced using a cAMP analog that up-regulates ABCA1 protein expression (e.g., J774 macrophages) can conveniently be used to assess the ability of a polypeptide of the present invention to mediate cholesterol efflux. The cells are incubated with labeled cholesterol (e.g., [^3H]cholesterol) under conditions appropriate for cholesterol uptake by the cells. Thus, cAMP or cAMP analogs (e.g., CPT-cAMP) are incubated with the cells for a suitable time before the initiation of cellular cholesterol efflux, i.e., prior to contacting the cells with a test polypeptide. Measurement of labeled cholesterol appearing in the medium is used to determine the cholesterol efflux mediating activity of the test polypeptide. […] J774 cells plated on 24-well culture plates were labeled (48 h) with 1 μCi/ml of [^3H]cholesterol in 1% FBS. A cAMP analog was added (0.3 mM) to some wells (12-18 h) to up-regulate ABCA1 expression. Following cAMP treatment, cells were rinsed, and then exposed to peptide in serum-free medium. Panel A provides data showing the dependence of cholesterol efflux on concentration (lipid-free SEQ ID NO:2 peptide (squares) and lipid-free apolipoprotein(apo)A-I (circles)); cAMP-treated cells were used. The percentage of cellular [^3H]cholesterol that appeared in the medium at 8 h is shown, subtracting background efflux to serum-free medium alone. Values are means±SD; apoA-I, n=8; SEQ ID NO:2 peptide, n=3. Km values reflecting efficiency for cholesterol efflux stimulation were calculated (Prism 4 software) from concentration-dependence curves using the Michaelis-Menton equation and 4 h efflux data.
# ABCA1 [3] = target: T1, ABCA1; test: Cholesterol efflux activity of peptides after exposure to acrolein (MPO-derived oxidation product), J774 macrophages + cAMP; type: cell-based; settings: acrolein:peptide mole ratio 25:1, 18 h, 37° C.; efflux at 2 μg/ml
# Experimental: Peptides corresponding to SEQ ID NO:2 and SEQ ID NO:12 were exposed to acrolein (acrolein:peptide mole ratio=25:1) for 18 h at 37° C. Control peptides were similarly incubated in the absence of acrolein. Control and acrolein-treated peptides were then dialyzed and used for cholesterol efflux experiments. […] J774 macrophages treated with cAMP, which up-regulates ABCA1, were used in both panels. Cholesterol efflux assays were conducted using peptides at 2 μg/ml serum free-medium.
# ABCA1 [4] = target: T1, ABCA1; test: Cholesterol efflux from [3H]cholesterol-labeled J774 macrophages ± cAMP (upregulates ABCA1); type: cell-based; settings: concentration dependence
# [5] = system: HDL subpopulations in human plasma; test: preβ-1 HDL formation in human plasma (2D gel electrophoresis, apoA-I Western blot); type: biochemical; settings: peptide 30 μg/ml (peptide:apoA-I mole ratio ~1:5), 5 minutes, 37° C.
# Experimental: Peptide of the invention may also be screened for the ability to induce preβ-1 HDL formation in human plasma. In one example of such an analysis, a peptide to be tested is added to human plasma. Plasma with and without peptide are incubated and then evaluated, e.g., by agarose gel electrophoresis in the first dimension followed by native gradient gel electrophoresis in the second dimension to evaluate the population of HDL particles present in the human plasma samples.
# Peptides corresponding to SEQ ID NO:2 were added to human plasma at a final concentration of 30 μg/ml (i.e. peptide:apoA-I mole ratio ˜1:5). Plasma with and without peptide were subsequently incubated for 5 minutes at 37° C. Following incubations, samples of plasma were subjected to agarose gel electrophoresis in the first dimension followed by native gradient gel electrophoresis in the second dimension. Proteins on resulting gels were transferred to nitrocellulose and analyzed by Western-blot analysis using an apoA-I antibody. The distribution of HDL subpopulations in plasma treated with vehicle alone (open bars), SEQ ID NO:2 peptide composed of all D-amino acids (intermediate shade), and SEQ ID NO:2 peptide composed of all L-amino acids (darkly shaded) is shown. […] Reductions of α-HDL subpopulations indicate that peptides specifically interact with distinct HDL species to generate preβ-1 apoA-I particles.
# T1 sequence (P41233 whole entry): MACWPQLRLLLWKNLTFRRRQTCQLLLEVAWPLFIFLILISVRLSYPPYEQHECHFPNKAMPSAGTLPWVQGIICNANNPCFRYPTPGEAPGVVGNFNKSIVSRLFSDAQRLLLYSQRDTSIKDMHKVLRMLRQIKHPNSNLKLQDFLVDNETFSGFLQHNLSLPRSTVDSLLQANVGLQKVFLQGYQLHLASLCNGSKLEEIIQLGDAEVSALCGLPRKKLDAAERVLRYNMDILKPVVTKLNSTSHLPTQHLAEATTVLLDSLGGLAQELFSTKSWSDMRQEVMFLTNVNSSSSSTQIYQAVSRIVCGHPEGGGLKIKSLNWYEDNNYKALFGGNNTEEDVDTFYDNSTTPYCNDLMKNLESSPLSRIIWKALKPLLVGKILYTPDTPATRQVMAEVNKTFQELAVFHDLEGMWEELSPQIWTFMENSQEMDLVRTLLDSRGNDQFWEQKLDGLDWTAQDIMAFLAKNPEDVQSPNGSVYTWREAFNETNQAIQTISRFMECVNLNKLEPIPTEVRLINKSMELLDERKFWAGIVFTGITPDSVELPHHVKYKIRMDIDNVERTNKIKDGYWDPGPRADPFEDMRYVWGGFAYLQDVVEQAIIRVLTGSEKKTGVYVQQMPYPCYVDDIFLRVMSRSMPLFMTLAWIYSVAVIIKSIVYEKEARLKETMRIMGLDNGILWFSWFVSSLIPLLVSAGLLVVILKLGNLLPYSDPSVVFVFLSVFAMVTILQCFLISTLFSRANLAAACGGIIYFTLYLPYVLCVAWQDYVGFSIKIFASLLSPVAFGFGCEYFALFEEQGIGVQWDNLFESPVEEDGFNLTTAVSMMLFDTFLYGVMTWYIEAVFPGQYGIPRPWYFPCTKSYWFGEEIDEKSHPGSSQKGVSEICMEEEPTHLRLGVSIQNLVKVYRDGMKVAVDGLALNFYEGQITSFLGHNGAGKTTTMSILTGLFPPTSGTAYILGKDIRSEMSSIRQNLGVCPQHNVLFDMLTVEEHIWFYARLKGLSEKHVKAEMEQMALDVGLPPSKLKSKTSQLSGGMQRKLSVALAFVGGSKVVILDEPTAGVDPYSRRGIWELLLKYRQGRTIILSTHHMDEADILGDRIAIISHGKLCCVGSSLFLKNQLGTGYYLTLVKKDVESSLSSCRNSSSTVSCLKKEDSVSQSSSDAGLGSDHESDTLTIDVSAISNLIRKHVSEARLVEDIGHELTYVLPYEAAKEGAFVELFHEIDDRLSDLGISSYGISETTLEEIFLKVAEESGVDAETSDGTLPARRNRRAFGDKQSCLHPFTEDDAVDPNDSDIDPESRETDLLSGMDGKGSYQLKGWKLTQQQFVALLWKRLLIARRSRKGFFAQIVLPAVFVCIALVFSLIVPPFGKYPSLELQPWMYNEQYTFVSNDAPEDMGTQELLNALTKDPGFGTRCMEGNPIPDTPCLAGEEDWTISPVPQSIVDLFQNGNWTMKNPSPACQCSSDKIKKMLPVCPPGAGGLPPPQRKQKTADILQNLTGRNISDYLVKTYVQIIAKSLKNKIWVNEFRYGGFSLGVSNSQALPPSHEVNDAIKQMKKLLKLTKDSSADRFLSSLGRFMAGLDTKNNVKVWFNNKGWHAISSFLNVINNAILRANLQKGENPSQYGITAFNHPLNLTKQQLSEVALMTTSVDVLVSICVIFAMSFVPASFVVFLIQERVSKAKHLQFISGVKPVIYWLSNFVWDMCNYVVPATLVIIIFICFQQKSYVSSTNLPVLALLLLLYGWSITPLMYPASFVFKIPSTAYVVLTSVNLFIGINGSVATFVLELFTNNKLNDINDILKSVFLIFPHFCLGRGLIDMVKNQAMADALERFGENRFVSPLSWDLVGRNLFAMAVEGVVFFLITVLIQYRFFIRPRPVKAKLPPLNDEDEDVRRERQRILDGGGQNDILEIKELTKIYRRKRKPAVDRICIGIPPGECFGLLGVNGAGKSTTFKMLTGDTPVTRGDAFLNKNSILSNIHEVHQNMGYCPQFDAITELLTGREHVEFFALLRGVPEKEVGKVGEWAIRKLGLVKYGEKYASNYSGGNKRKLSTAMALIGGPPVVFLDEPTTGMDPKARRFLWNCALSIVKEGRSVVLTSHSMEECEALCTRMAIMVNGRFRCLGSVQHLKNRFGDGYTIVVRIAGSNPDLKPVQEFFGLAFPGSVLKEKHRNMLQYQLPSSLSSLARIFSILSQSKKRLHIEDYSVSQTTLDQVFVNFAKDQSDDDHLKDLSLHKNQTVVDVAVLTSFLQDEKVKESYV
compound,measurement,setting,value
C[C@H](N)C(=O)O [Alanine],Hydrophobicity (scaled computational log(P)),[1],0.616
N=C(N)NCCC[C@H](N)C(=O)O [Arginine],Hydrophobicity (scaled computational log(P)),[1],0.000
NC(=O)C[C@H](N)C(=O)O [Asparagine],Hydrophobicity (scaled computational log(P)),[1],0.236
N[C@@H](CCC(=O)O)C(=O)O [Glutamate],Hydrophobicity (scaled computational log(P)),[1],0.043
NCC(=O)O [Glycine],Hydrophobicity (scaled computational log(P)),[1],0.501
N[C@@H](Cc1c[nH]cn1)C(=O)O [Histidine],Hydrophobicity (scaled computational log(P)),[1],0.165
CC[C@H](C)[C@H](N)C(=O)O [Isoleucine],Hydrophobicity (scaled computational log(P)),[1],0.943
NCCCC[C@H](N)C(=O)O [Lysine],Hydrophobicity (scaled computational log(P)),[1],0.283
CSCC[C@H](N)C(=O)O [Methionine],Hydrophobicity (scaled computational log(P)),[1],0.738
N[C@@H](Cc1ccccc1)C(=O)O [Phenylalanine],Hydrophobicity (scaled computational log(P)),[1],1.00
O=C(O)[C@@H]1CCCN1 [Proline],Hydrophobicity (scaled computational log(P)),[1],0.711
C[C@@H](O)[C@H](N)C(=O)O [Threonine],Hydrophobicity (scaled computational log(P)),[1],0.450
N[C@@H](Cc1c[nH]c2ccccc12)C(=O)O [Tryptophan],Hydrophobicity (scaled computational log(P)),[1],0.878
N[C@@H](Cc1ccc(O)cc1)C(=O)O [Tyrosine],Hydrophobicity (scaled computational log(P)),[1],0.880
CC(C)[C@H](N)C(=O)O [Valine],Hydrophobicity (scaled computational log(P)),[1],0.825
ELRDRLEAWLDLLRELLERL [N1154-10],% cholesterol efflux (8 hours),ABCA1 [2]; + cAMP (ABCA1 upregulated),8.25 ± 0.33%
same,% cholesterol efflux (8 hours),ABCA1 [2]; no cAMP,2.66 ± 0.41%
same,effect of acrolein on cholesterol efflux activity,ABCA1 [3],modest effects of acrolein
same,% cholesterol efflux/4 hours,ABCA1 [4]; peptide 0.1 μg/ml,0.58%
same,% cholesterol efflux/4 hours,ABCA1 [4]; peptide 0.3 μg/ml,1.00%
same,% cholesterol efflux/4 hours,ABCA1 [4]; peptide 1.0 μg/ml,2.12%
same,% cholesterol efflux/4 hours,ABCA1 [4]; peptide 3.0 μg/ml,5.25%
same,% cholesterol efflux/4 hours,ABCA1 [4]; peptide 10 μg/ml,4.15%
same,% cholesterol efflux/4 hours,ABCA1 [4]; peptide 30 μg/ml,3.70%
ELREKLEAFFELFREFLERF (synthetic amphipathic alpha-helix peptide ligand for ATP-binding cassette transporter A1 (ABCA1) having cholesterol efflux activity) [SEQ ID NO:33],cholesterol efflux from cells induced for the ABCA1 response (in words),ABCA1 [2],relatively high-levels of cholesterol efflux
ELREKLEALFELFREFLERF (synthetic amphipathic alpha-helix peptide ligand for ATP-binding cassette transporter A1 (ABCA1) having cholesterol efflux activity) [SEQ ID NO:32],cholesterol efflux from cells induced for the ABCA1 response (in words),ABCA1 [2],relatively high-levels of cholesterol efflux
ELREKLEAWFELFAEFFARF (synthetic amphipathic alpha-helix peptide N356-6 ligand for ATP-binding cassette transporter A1 (ABCA1) having cholesterol efflux activity),concentration giving max. efflux,"ABCA1 [2]; concentration dependence, cAMP treated cells",3 µg/mL
ELREKLEAWFELFREFLERF ([dE][dL][dR][dE][dK][dL][dE][dA][dW][dF][dE][dL][dF][dR][dE][dF][dL][dE][dR][dF]),change in HDL subpopulations in human plasma,[5],preferential increase in preβ-1 HDL
ELREKLEAWFELFREFLERF [N965-8],% cholesterol efflux (8 hours),ABCA1 [2]; + cAMP (ABCA1 upregulated),5.26 ± 0.95%
same,% cholesterol efflux (8 hours),ABCA1 [2]; no cAMP,2.29 ± 0.16%
same,effect of acrolein on cholesterol efflux activity,ABCA1 [3],Acrolein greatly decreased the activity
same,% cholesterol efflux/4 hours,ABCA1 [4]; peptide 0.1 μg/ml,0.15%
same,% cholesterol efflux/4 hours,ABCA1 [4]; peptide 0.3 μg/ml,0.52%
same,% cholesterol efflux/4 hours,ABCA1 [4]; peptide 1.0 μg/ml,1.72%
same,% cholesterol efflux/4 hours,ABCA1 [4]; peptide 3.0 μg/ml,4.60%
same,% cholesterol efflux/4 hours,ABCA1 [4]; peptide 10 μg/ml,3.62%
same,% cholesterol efflux/4 hours,ABCA1 [4]; peptide 30 μg/ml,3.66%
ELREKLEAWFELFREFLERFKS (synthetic amphipathic alpha-helix peptide ligand for ATP-binding cassette transporter A1 (ABCA1) having cholesterol efflux activity) [SEQ ID NO:31],stimulation of ABCA1 cholesterol efflux (in words),"ABCA1 [2]; lipid-free peptide, J774 macrophages ± cAMP","stimulates ABCA1 cholesterol efflux, similar to 20-mer SEQ ID NO:2 peptide"
ELREKLEAWREAFEEFFARFKS [N257-11],% cholesterol efflux (8 hours),ABCA1 [2]; + cAMP (ABCA1 upregulated),6.99 ± 1.4%
same,% cholesterol efflux (8 hours),ABCA1 [2]; no cAMP,0.91 ± 0.1%
"apoA-I: full-length apolipoprotein A-I, polypeptide comprising 243 amino acids, used lipid-free as comparator [reference compound]",Km,"ABCA1 [2]; lipid-free, cAMP-treated cells, 4 h efflux data, read-out: Km for cholesterol efflux stimulation, molar basis",0.12 ± 0.02 µM
same,"Km for cholesterol efflux stimulation, mass basis","ABCA1 [2]; lipid-free, cAMP-treated cells, Michaelis-Menton fit of 4 h efflux data",3.4 ± 0.6 µg/mL
